ChEMBL document CHEMBL1201862, “PubChem BioAssay data set” (2004)
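Five compound concentrations were applied to cells in 96-well plates for 48 hours; endpoints were derived by simple linear interpolation of the resulting dose-response curve. GI50 marks 50% less growth.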 Calls of active or inactive are those of the source. Rule as the data show it: active = GI50 up to about 1.1 µM and inactive = higher.

Key:
Experiment in all cases: NCI tumour cell line growth inhibition, 48 h
A498 = system: A498
ACHN = system: ACHN
HCC 2998 = system: HCC 2998
HCT-15 = system: HCT-15
HL-60 = system: HL-60
K562 = system: K562
NCI-H23 = system: NCI-H23
NCI-H460 = system: NCI-H460
OVCAR-3 = system: OVCAR-3
OVCAR-5 = system: OVCAR-5
RPMI-8226 = system: RPMI-8226
SF-295 = system: SF-295
SF-539 = system: SF-539
SK-MEL-2 = system: SK-MEL-2
UACC-257 = system: UACC-257
OVCAR-8 = system: OVCAR-8
SNB-75 = system: SNB-75
SR = system: SR

Row | Structure (SMILES) | GI50 (A498) | GI50 (ACHN) | GI50 (HCC 2998) | GI50 (HCT-15) | GI50 (HL-60) | GI50 (K562) | GI50 (NCI-H23) | GI50 (NCI-H460) | GI50 (OVCAR-3) | GI50 (OVCAR-5) | GI50 (RPMI-8226) | GI50 (SF-295) | GI50 (SF-539) | GI50 (SK-MEL-2) | GI50 (UACC-257) | GI50 (OVCAR-8) | GI50 (SNB-75) | GI50 (SR)
1 | O=[N+]([O-])c1ccc2nc3ccscc-3c2c1 | 8.36 µM (inactive) | 13.6 µM (inactive) | 15.2 µM (inactive) | 15.2 µM | 4.81 µM (inactive) | 4.6 µM (inactive) | 11.7 µM (inactive) | 14.1 µM (inactive) | 7.94 µM (inactive) | 35.3 µM (inactive) | 7.08 µM (inactive) | 24.2 µM (inactive) | 8.49 µM (inactive) | 6.75 µM (inactive) | 14.3 µM (inactive) | – | – | –
2 | Cc1cc(OCC(O)CO)ccc1-c1ccccc1 (stereo unspecified) | 11.4 µM (inactive) | > 100 µM (inactive) | > 100 µM (inactive) | 37.2 µM | 61.1 µM (inactive) | > 100 µM (inactive) | > 100 µM (inactive) | > 100 µM (inactive) | > 100 µM (inactive) | – | – | – | – | > 100 µM (inactive) | 52.5 µM (inactive) | > 100 µM (inactive) | > 100 µM (inactive) | > 100 µM (inactive)
3 | NC(CCc1nc(-c2ccc(Cl)cc2)cs1)C(=O)O (stereo unspecified) | > 100 µM (inactive) | > 100 µM (inactive) | > 100 µM (inactive) | 74 µM | > 100 µM (inactive) | – | > 100 µM (inactive) | > 100 µM (inactive) | > 100 µM (inactive) | > 100 µM (inactive) | > 100 µM (inactive) | > 100 µM (inactive) | – | > 100 µM (inactive) | > 100 µM (inactive) | > 100 µM (inactive) | > 100 µM (inactive) | > 100 µM (inactive)
4 | CCOC(=O)C(=O)Nc1c(C)cccc1CC | – | > 100 µM (inactive) | > 100 µM (inactive) | – | > 100 µM (inactive) | > 100 µM (inactive) | > 100 µM (inactive) | > 100 µM (inactive) | > 100 µM (inactive) | > 100 µM (inactive) | > 100 µM (inactive) | > 100 µM (inactive) | > 100 µM (inactive) | > 100 µM (inactive) | > 100 µM (inactive) | > 100 µM (inactive) | – | > 100 µM (inactive)
5 | N#CN1CCC=C(c2cc3ccccc3[nH]2)C1 | – | 272 µM (inactive) | 185 µM (inactive) | 370 µM | 164 µM (inactive) | 421 µM (inactive) | 182 µM (inactive) | > 448 µM (inactive) | 92.5 µM (inactive) | > 448 µM (inactive) | 170 µM (inactive) | 313 µM (inactive) | > 448 µM (inactive) | 279 µM (inactive) | 199 µM (inactive) | 300 µM (inactive) | – | 159 µM (inactive)
6 | NC(=S)N/N=C(\CC1OC(=O)c2ccccc21)c1ccc(Cl)cc1 (stereo unspecified) | – | 56.1 µM (inactive) | 23.9 µM (inactive) | 39.8 µM | 98.2 µM (inactive) | 84.1 µM (inactive) | 25.2 µM (inactive) | 34.3 µM (inactive) | 34.6 µM (inactive) | 92.9 µM (inactive) | 75.3 µM (inactive) | 41.9 µM (inactive) | 20.8 µM (inactive) | – | 46.7 µM (inactive) | 18 µM (inactive) | 49.2 µM (inactive) | 60.7 µM (inactive)
7 | O=C1N2Cc3c4ccc5c3CN3C(=O)N6Cc7c(ccc(c7CN1C6(c1ccccc1)C23c1ccccc1)OCCOCCNCCOCCO4)OCCOCCNCCOCCO5 (stereo unspecified) | > 100 µM (inactive) | 22.5 µM (inactive) | 34.9 µM (inactive) | 28.3 µM | – | 69.7 µM (inactive) | 70.5 µM (inactive) | 30.5 µM (inactive) | 15 µM (inactive) | > 100 µM (inactive) | 11.7 µM (inactive) | 65.5 µM (inactive) | 56.9 µM (inactive) | 59.7 µM (inactive) | 16.9 µM (inactive) | 65 µM (inactive) | > 100 µM (inactive) | 54.7 µM (inactive)
8 | CC(C)(O)/C=C\P(C)(=O)c1ccccc1 (stereo unspecified) | – | > 100 µM (inactive) | > 100 µM (inactive) | > 100 µM | – | > 100 µM (inactive) | > 100 µM (inactive) | > 100 µM (inactive) | > 100 µM (inactive) | > 100 µM (inactive) | 39.4 µM (inactive) | > 100 µM (inactive) | > 100 µM (inactive) | > 100 µM (inactive) | > 100 µM (inactive) | > 100 µM (inactive) | > 100 µM (inactive) | > 100 µM (inactive)
9 | COc1cc(C(=O)CC2(O)C(=O)Nc3c(Cl)cc(Cl)cc32)ccc1O (stereo unspecified) | – | 57.1 µM (inactive) | 31.5 µM (inactive) | 64 µM | 36.2 µM (inactive) | 35.5 µM (inactive) | 59.2 µM (inactive) | 75.7 µM (inactive) | 46.3 µM (inactive) | > 100 µM (inactive) | 24.4 µM (inactive) | 69.2 µM (inactive) | – | 87.1 µM (inactive) | 43.6 µM (inactive) | 63 µM (inactive) | 24.2 µM (inactive) | –
10 | CN(C)CC(C)(C)C(=O)/C=C/c1ccccc1 | 17 µM (inactive) | 17.9 µM (inactive) | – | 12.6 µM | 5.58 µM (inactive) | 5.13 µM (inactive) | 19.9 µM (inactive) | 13.9 µM (inactive) | 17.5 µM (inactive) | – | 12.2 µM (inactive) | 17.5 µM (inactive) | 16.6 µM (inactive) | – | 12.8 µM (inactive) | 18 µM (inactive) | 16.1 µM (inactive) | –
11 | CN(C)CCn1cnc2sc3ccccc3c21 | > 100 µM (inactive) | > 100 µM (inactive) | > 100 µM (inactive) | > 100 µM | – | > 100 µM (inactive) | > 100 µM (inactive) | > 100 µM (inactive) | > 100 µM (inactive) | > 100 µM (inactive) | – | > 100 µM (inactive) | > 100 µM (inactive) | > 100 µM (inactive) | > 100 µM (inactive) | > 100 µM (inactive) | 22.2 µM (inactive) | –
12 | CCCN(CCCC(NC(C)=O)C(=O)NCc1ccccc1)C(=O)NC (stereo unspecified) | > 100 µM (inactive) | > 100 µM (inactive) | > 100 µM (inactive) | > 100 µM | – | > 100 µM (inactive) | > 100 µM (inactive) | > 100 µM (inactive) | > 100 µM (inactive) | > 100 µM (inactive) | > 100 µM (inactive) | > 100 µM (inactive) | > 100 µM (inactive) | > 100 µM (inactive) | > 100 µM (inactive) | > 100 µM (inactive) | 13.7 µM (inactive) | –
13 | COc1ccccc1NC(=O)C(CC(C(=O)Nc1ccccc1OC)/C(C)=N/Nc1ccc([N+](=O)[O-])cc1[N+](=O)[O-])/C(C)=N/Nc1ccc([N+](=O)[O-])cc1[N+](=O)[O-] (stereo unspecified) | 51.1 µM (inactive) | > 86.1 µM (inactive) | > 82 µM (inactive) | > 91.6 µM | 41.5 µM (inactive) | > 65.9 µM (inactive) | > 83.8 µM (inactive) | > 100 µM (inactive) | 77.4 µM (inactive) | > 100 µM (inactive) | 63.1 µM (inactive) | > 93.1 µM (inactive) | > 90.2 µM (inactive) | > 100 µM (inactive) | > 72.3 µM (inactive) | > 71 µM (inactive) | 52.1 µM (inactive) | 0.916 µM (active)
14 | CCN(C(=N)C#N)c1ccccc1 | > 100 µM (inactive) | > 100 µM (inactive) | > 100 µM (inactive) | > 45.4 µM | > 46.9 µM (inactive) | > 75.5 µM (inactive) | > 100 µM (inactive) | > 63.8 µM (inactive) | > 100 µM (inactive) | > 100 µM (inactive) | > 100 µM (inactive) | > 100 µM (inactive) | 13.6 µM (inactive) | > 100 µM (inactive) | > 59.2 µM (inactive) | > 100 µM (inactive) | > 100 µM (inactive) | > 100 µM (inactive)
15 | O=c1c2ccccc2nc2n1-c1ccccc1SC2 | 47.9 µM (inactive) | 54.7 µM (inactive) | 81.1 µM (inactive) | 54.1 µM | – | 36.7 µM (inactive) | 38.1 µM (inactive) | 40.2 µM (inactive) | 64.9 µM (inactive) | > 100 µM (inactive) | 24.3 µM (inactive) | > 100 µM (inactive) | > 100 µM (inactive) | > 100 µM (inactive) | 39.4 µM (inactive) | 38 µM (inactive) | 17.7 µM (inactive) | –
16 | C=CC1(C)/C(=N\O)C(C)(CC)C(=O)N1O (stereo unspecified) | > 100 µM (inactive) | > 100 µM (inactive) | – | > 100 µM | > 100 µM (inactive) | > 100 µM (inactive) | > 100 µM (inactive) | > 100 µM (inactive) | > 100 µM (inactive) | > 100 µM (inactive) | – | > 100 µM (inactive) | > 100 µM (inactive) | > 100 µM (inactive) | > 100 µM (inactive) | > 100 µM (inactive) | > 100 µM (inactive) | > 100 µM (inactive)
17 | COc1cc(C)c2c(c1C)OC(=O)c1c(C)c(Cl)c(O)c(C=O)c1O2 | 13.9 µM (inactive) | 14.7 µM (inactive) | 19.5 µM (inactive) | – | 9.02 µM (inactive) | 18.5 µM (inactive) | 14.7 µM (inactive) | 17.4 µM (inactive) | 1.63 µM (inactive) | 27.7 µM (inactive) | 14 µM (inactive) | > 10 µM (inactive) | 12.2 µM (inactive) | – | 20 µM (inactive) | 10.2 µM (inactive) | 14.3 µM (inactive) | 14.3 µM (inactive)
18 | Cc1cc(C2CCCCC2)n(O)c(=O)c1 [CICLOPIROX OLAMINE] | 14.7 µM (inactive) | 3.97 µM (inactive) | 4.97 µM (inactive) | 4.39 µM | 0.178 µM (active) | 3.41 µM (inactive) | 9.08 µM (inactive) | 2.32 µM (inactive) | – | 8.28 µM (inactive) | 3.56 µM (inactive) | 3.81 µM (inactive) | 5.52 µM (inactive) | 21.3 µM (inactive) | 1.62 µM (inactive) | 3.22 µM (inactive) | 5.46 µM (inactive) | 2.95 µM (inactive)
